In US8614206B2 (Genentech, Inc., priority 2011, dated 2013):
Like-named read-outs stand apart in the source and are kept apart here.

How the values were obtained:
[1] = test system: BaF3 parental cells; assay: In vitro cell proliferation, BaF3 parental line + IL3 (CellTiter-Glo); assay type: cell-based, murine
[2] = test system: MM1.S (multiple myeloma) cells; assay: In vitro cell proliferation, MM1.S multiple myeloma cells (CellTiter-Glo, ATP); assay type: cell-based; details: read-out: Prolif MM1S ATP (EC50)
Method: BaF3, a murine interleukin-3 dependent pro-B cell line, parental cells, BaF3 PIM1 cells, BaF3 PIM2 cells, and MM1.S (multiple myeloma) cells were seeded at 2 k/well, 5 k/well, 5 k/well, and 10 k/well respectively, in a 384-well plate, at 45 μL/well. Test compound was added at 5 μL/well. BaF3 cells (parental and transfected) were incubated overnight, while MM1.S cells were incubated for 72 hours at 37° C., 5% CO2. […] IC50/EC50 values for the test compound were calculated.

[3] = Mus musculus, BaF3, BaF3 parental cells with IL-3, incubated overnight, read-out: Prolif BaF3 + IL3 (IC50)
[4] = Mus musculus, BaF3, BaF3 parental cells with IL-3, incubated overnight, read-out: Prolif BaF3 IL3 (IC50)
[5] = BaF3 parental cells with IL-3, incubated overnight, read-out: Prolif BaF3 + IL3 (IC50)

With `CC[C@H]1CN(c2c(NC(=O)c3nc(-c4c(F)cccc4F)sc3N)cnn2C)CC[C@@]1(CN)OC` [Example 496, 5-amino-N-(5-((3S,4R)-4-(aminomethyl)-3-ethyl-4-methoxypiperidin-1-yl)-1-methyl-1H-pyrazol-4-yl)-2-(2,6-difluorophenyl)thiazole-4-carboxamide] the IC50 [1, 3] was 11.6 µM and the EC50 ([2]; Homo sapiens, MM1.S, 72 h) was 19.6 µM.
For `CNCC1CCN(c2c(NC(=O)c3nc(-c4c(F)cccc4F)sc3N)cnn2C)CC1` [Example 101, 5-Amino-2-(2,6-difluorophenyl)-N-(1-methyl-5-(4-((methylamino)methyl)piperidin-1-yl)-1H-pyrazol-4-yl)thiazole-4-carboxamide], the IC50 [1, 4] was 19.5 µM and the EC50 ([2]; Homo sapiens, MM1.S, 72 h) was 17.9 µM.
With `Cn1ncc(NC(=O)c2nc(-c3c(F)cccc3F)sc2N)c1C1CCC(N)CC(C)(O)C1` (single isomer, unassigned) [Example 456, 5-amino-N-[5-(5-amino-3-hydroxy-3-methyl-cycloheptyl)-1-methyl-pyrazol-4-yl]-2-(2,6-difluorophenyl)thiazole-4-carboxamide] the IC50 [1, 3] was > 25 µM and the EC50 ([2]; 72 hours) was > 25 µM.
With `CO[C@H]1CC=C(c2c(NC(=O)c3nc(-c4c(F)cccc4F)sc3N)cnn2C)CC[C@@H]1N` [Example 410, 5-amino-N-(5-((4S,5S)-5-amino-4-methoxycyclohept-1-enyl)-1-methyl-1H-pyrazol-4-yl)-2-(2,6-difluorophenyl)thiazole-4-carboxamide] the IC50 [1, 3] was 9.2 µM and the EC50 ([2]; Homo sapiens, MM1.S, 72 h) was 0.693 µM.
For `Cn1ncc(NC(=O)c2nc(-c3c(F)cccc3F)sc2N)c1N1CCC(N)C(CO)CC1` (centres unmarked) [Example 513, 5-amino-N-[5-[4-amino-5-(hydroxymethyl)azepan-1-yl]-1-methyl-pyrazol-4-yl]-2-(2,6-difluorophenyl)thiazole-4-carboxamide], the IC50 [1, 3] was > 25 µM and the EC50 ([2]; Homo sapiens, MM1.S, 72 h) was 7.2 µM.
Work on `C=C1C[C@@H](N)CCN(c2c(NC(=O)c3nc(-c4c(F)cccc4F)sc3N)cnn2C)C1` [Example 449, 5-amino-N-[5-[(5R)-5-amino-3-methylene-azepan-1-yl]-1-methyl-pyrazol-4-yl]-2-(2,6-difluorophenyl)thiazole-4-carboxamide] yielded an IC50 [1, 3] of 8.5 µM and an EC50 ([2]; Homo sapiens, MM1.S, 72 h) of 4.2 µM.
In the case of `COC1(C)CCN(c2c(NC(=O)c3nc(-c4c(F)cccc4F)sc3N)cnn2C)CCC1N` (single isomer, unassigned) [Example 502, 5-amino-N-[5-(5-amino-4-methoxy-4-methyl-azepan-1-yl)-1-methyl-pyrazol-4-yl]-2-(2,6-difluorophenyl)thiazole-4-carboxamide], the IC50 [1, 3] is reported as 11.9 µM and the EC50 ([2]; 72 hours) is reported as 2.2 µM.
`Cn1ncc(NC(=O)c2nc(-c3c(F)cccc3F)sc2N)c1N1CCC(N)C(C(F)F)CC1` (single isomer, unassigned) [Example 512, 5-amino-N-[5-[4-amino-5-(difluoromethyl)azepan-1-yl]-1-methyl-pyrazol-4-yl]-2-(2,6-difluorophenyl)thiazole-4-carboxamide] showed an IC50 [1, 5] of 24.6 µM and an EC50 ([2]; Homo sapiens, MM1.S, 72 h) of 2 µM.
`Cn1ncc(NC(=O)c2nc(-c3c(F)cccc3F)sc2N)c1N1CCC2(CCNC2)CC1` [Example 124, 5-Amino-2-(2,6-difluorophenyl)-N-(1-methyl-5-(2,8-diazaspiro[4.5]decan-8-yl)-1H-pyrazol-4-yl)thiazole-4-carboxamide] gave an IC50 [1, 4] of 22.1 µM and an EC50 ([2]; Homo sapiens, MM1.S, 72 h) of 1.4 µM.
For `COC1CC(N)CCN(c2c(NC(=O)c3nc(-c4c(F)cccc4F)sc3N)cnn2C)C1` (centres unmarked) [Example 321, 5-amino-N-[5-(5-amino-3-methoxy-azepan-1-yl)-1-methyl-pyrazol-4-yl]-2-(2,6-difluorophenyl)thiazole-4-carboxamide], the IC50 [1, 5] was > 25 µM and the EC50 ([2]; 72 hours) was 0.00846 µM.
For `COC1(C)CCN(c2c(NC(=O)c3nc(-c4c(F)cccc4F)sc3N)cnn2C)CCC1N` (single isomer, unassigned) [Example 503, 5-amino-N-[5-(5-amino-4-methoxy-4-methyl-azepan-1-yl)-1-methyl-pyrazol-4-yl]-2-(2,6-difluorophenyl)thiazole-4-carboxamide], the IC50 [1, 5] was 11 µM and the EC50 ([2]; 72 hours) was 0.108 µM.
`Cn1ncc(NC(=O)c2nc(-c3c(F)cccc3F)sc2N)c1N1CCC2(CC1)CNCCO2` [Example 484, 5-amino-2-(2,6-difluorophenyl)-N-[1-methyl-5-(1-oxa-4,9-diazaspiro[5.5]undecan-9-yl)pyrazol-4-yl]thiazole-4-carboxamide] showed an IC50 [1, 3] of 14.3 µM and an EC50 ([2]; Homo sapiens, MM1.S, 72 h) of 13.7 µM.
In the case of `Cn1ncc(NC(=O)c2nc(-c3c(F)cccc3F)sc2N)c1N1CCCC(C)(N)CC1` (single isomer, unassigned) [Example 436, 5-amino-N-[5-(4-amino-4-methyl-azepan-1-yl)-1-methyl-pyrazol-4-yl]-2-(2,6-difluorophenyl)thiazole-4-carboxamide], the IC50 [1, 3] is reported as 8.3 µM and the EC50 ([2]; Homo sapiens, MM1.S, 72 h) is reported as 4.9 µM.
With `Cn1ncc(NC(=O)c2nc(-c3c(F)cccc3F)sc2N)c1N1CCC(N)C(O)CC1` (single isomer, unassigned) [Example 328, 5-amino-N-[5-(4-amino-5-hydroxy-azepan-1-yl)-1-methyl-pyrazol-4-yl]-2-(2,6-difluorophenyl)thiazole-4-carboxamide] the IC50 [1, 5] was > 25 µM and the EC50 ([2]; 72 hours) was 11.5 µM.
In the case of `Cn1ncc(NC(=O)c2nc(-c3c(F)cccc3F)sc2N)c1N1CCNCC2(CC2)C1` [Example 313, 5-amino-N-[5-(5,8-diazaspiro[2.6]nonan-8-yl)-1-methyl-pyrazol-4-yl]-2-(2,6-difluorophenyl)thiazole-4-carboxamide], the IC50 [1, 3] is reported as 17 µM and the EC50 ([2]; Homo sapiens, MM1.S, 72 h) is reported as 6.4 µM.
With `COC1CC(N)CCN(c2c(NC(=O)c3nc(-c4c(F)cccc4F)sc3N)cnn2C)C1` (centres unmarked) [Example 316, 5-amino-N-[5-(5-amino-3-methoxy-azepan-1-yl)-1-methyl-pyrazol-4-yl]-2-(2,6-difluorophenyl)thiazole-4-carboxamide] the IC50 [1, 5] was > 25 µM and the EC50 ([2]; 72 hours) was 0.163 µM.
For `COC1CC(N)CCN(c2c(NC(=O)c3nc(-c4c(F)cccc4F)sc3N)cnn2C)C1` (centres unmarked) [Example 320, 5-amino-N-[5-(5-amino-3-methoxy-azepan-1-yl)-1-methyl-pyrazol-4-yl]-2-(2,6-difluorophenyl)thiazole-4-carboxamide], the IC50 [1, 3] was 25 µM and the EC50 ([2]; 72 hours) was 0.118 µM.
For `CO[C@H]1CCC(c2c(NC(=O)c3nc(-c4ccccc4F)sc3N)cnn2C)CC[C@@H]1N` (single isomer, unassigned) [Example 414], the IC50 [1, 3] was > 25 µM and the EC50 ([2]; Homo sapiens, MM1.S, 72 h) was 0.0699 µM.
For `Cn1ncc(NC(=O)c2nc(-c3c(F)cccc3F)sc2N)c1C1CCC(N)CC(C)(O)C1` (single isomer, unassigned) [Example 468, 5-amino-N-[5-(5-amino-3-hydroxy-3-methyl-cycloheptyl)-1-methyl-pyrazol-4-yl]-2-(2,6-difluorophenyl)thiazole-4-carboxamide], the IC50 [1, 5] was > 25 µM and the EC50 ([2]; 72 hours) was 0.824 µM.
For `CC[C@H]1CNCCN1c1c(NC(=O)c2nc(-c3c(F)cccc3F)sc2N)cnn1C` [Example 113, (S)-5-Amino-2-(2,6-difluorophenyl)-N-(5-(2-ethylpiperazin-1-yl)-1-methyl-1H-pyrazol-4-yl)thiazole-4-carboxamide], the IC50 [1, 4] was > 25 µM and the EC50 ([2]; Homo sapiens, MM1.S, 72 h) was 19 µM.
`Cn1ncc(NC(=O)c2nc(-c3c(F)cccc3F)sc2N)c1N1CC2CNCC(C1)O2` [Example 354, 5-amino-2-(2,6-difluorophenyl)-N-[1-methyl-5-(9-oxa-3,7-diazabicyclo[3.3.1]nonan-3-yl)pyrazol-4-yl]thiazole-4-carboxamide] gave an IC50 [1, 3] of 14.4 µM and an EC50 ([2]; Homo sapiens, MM1.S, 72 h) of 0.168 µM.
For `CO[C@@H]1CCN(c2c(NC(=O)c3nc(-c4c(F)cccc4F)sc3N)cnn2C)CC2(CC2)[C@@H]1N` [Example 517, 5-amino-N-(5-((8R,9S)-9-amino-8-methoxy-5-azaspiro[2.6]nonan-5-yl)-1-methyl-1H-pyrazol-4-yl)-2-(2,6-difluorophenyl)thiazole-4-carboxamide], the IC50 [1, 3] was 11.9 µM and the EC50 ([2]; Homo sapiens, MM1.S, 72 h) was 9.9 µM.
`CCOC1CCN(c2c(NC(=O)c3nc(-c4c(F)cccc4F)sc3N)cnn2C)CCC1N` (centres unmarked) [Example 514, 5-amino-N-[5-(4-amino-5-ethoxy-azepan-1-yl)-1-methyl-pyrazol-4-yl]-2-(2,6-difluorophenyl)thiazole-4-carboxamide] was tested, and the IC50 [1, 3] was 15.4 µM and the EC50 ([2]; 72 hours) was 3.1 µM.
`Cn1ncc(NC(=O)c2nc(-c3c(F)cccc3F)sc2N)c1N1CCC(N)CC2(CCO2)C1` (single isomer, unassigned) [Example 452, 5-amino-N-[5-(6-amino-1-oxa-9-azaspiro[3.6]decan-9-yl)-1-methyl-pyrazol-4-yl]-2-(2,6-difluorophenyl)thiazole-4-carboxamide] was tested, and the IC50 [1, 5] was 24.7 µM and the EC50 ([2]; 72 hours) was 0.0793 µM.
In the case of `Cn1ncc(NC(=O)c2nc(-c3ccccc3F)sc2N)c1N1CC[C@@H](N)[C@H](F)CC1` (single isomer, unassigned) [Example 230], the IC50 [1, 4] is reported as 18.1 µM and the EC50 ([2]; Homo sapiens, MM1.S, 72 h) is reported as 1.3 µM.
With `CNC1CCN(c2c(NC(=O)c3nc(-c4c(F)cccc4F)sc3N)cnn2C)CC(F)(F)C1` (centres unmarked) [Example 408, 5-amino-N-[5-[3,3-difluoro-5-(methylamino)azepan-1-yl]-1-methyl-pyrazol-4-yl]-2-(2,6-difluorophenyl)thiazole-4-carboxamide] the IC50 [1, 3] was 16.5 µM and the EC50 ([2]; 72 hours) was 2.4 µM.
Work on `Cn1ncc(NC(=O)c2nc(-c3c(F)cccc3F)sc2N)c1N1CCC(N)C(O)CC1` (single isomer, unassigned) [Example 337, 5-amino-N-[5-(4-amino-5-hydroxy-azepan-1-yl)-1-methyl-pyrazol-4-yl]-2-(2,6-difluorophenyl)thiazole-4-carboxamide] yielded an IC50 [1, 5] of 25 µM and an EC50 ([2]; 72 hours) of 0.0308 µM.
Molecule `COC1CCC(c2c(NC(=O)c3nc(-c4ccccc4F)sc3N)cnn2C)CCC1N` (centres unmarked) [Example 506] has an IC50 [1, 5] of 17.1 µM and an EC50 ([2]; 72 hours) of 11.7 µM.
